These are literature values, as cited in paper PMC3086271 (Biochemical Journal, 2011).

Read-outs that look alike come from different tables or passages of the source.

Data set [1] concerns the target C-ACE of human somatic ACE. As to conditions: read-out: Ki for C-ACE.
Data set [2] has as its target N-ACE of human somatic ACE. As to conditions: read-out: Ki for N-ACE.
Data set [3] has as its system mean arterial blood pressure. The conditions noted are these: spontaneous hypertensive rat, intravenous, 10 mg/kg of body weight.

By Ki is commonly meant the equilibrium dissociation constant of an inhibitor or competing ligand from its target. As to `O=C(N[C@@H](Cc1ccccc1)P(=O)(O)C1CCCC1C(=O)N[C@@H](Cc1c[nH]c2ccccc12)C(=O)O)OCc1ccccc1` (some centres unmarked) [RXPA380], the Ki was 3 nM in data set [1] (C-ACE-specific phosphinic inhibitor) and 2500 nM in data set [2].

As to `NCCCC[C@H](N[C@@H](CCc1ccccc1)C(=O)O)C(=O)N1CCC[C@H]1C(=O)O` [lisinopril], the Ki is 2.4 nM in data set [1] (C-ACE of human somatic ACE) and 44 nM in data set [2] (N-ACE of human somatic ACE).

In the case of `O=C(N[C@@H](Cc1ccccc1)P(=O)(O)CC(Cc1cc(-c2ccccc2)no1)C(=O)N[C@@H](Cc1ccc(O)cc1)C(=O)O)OCc1ccccc1` (stereo partly drawn) [FII, (2S)-2-({3[hydroxyl(2-phenyl-(1R)-1-{[(benzyloxy)carbonyl]-amino}ethyl)phosphinyl]-2-[(3-phenylisoxazol-5-yl)methyl]-1-oxo-propyl}amino)-3-(4-hydroxy-phenyl) propanoic acid], the “lowering of mean arterial blood pressure as compared with controls” value in data set [3] was 24±2 mmHg.
